Assay results as given in ChEMBL document CHEMBL3124911, “Chikungunya virus: emerging targets and new opportunities for medicinal chemistry” (J Med Chem, 2014).
In brackets after ≈: the same amount, converted by molar mass.

Legend:
Chikungunya virus [1] = assay: Antiviral activity against Chikungunya virus infected in BHK21 cells assessed as inhibition of viral replication after 24 hrs; format: functional, cell-based; conditions: BHK-21, 24 h
Chikungunya virus [2] = assay: Antiviral activity against Chikungunya virus; format: functional
[3] = Selectivity index, ratio of CC50 for African green monkey Vero cells to EC50 for Chikungunya virus; format: toxicity, cell-based; conditions: read-out: Ratio CC50/EC50
Chikungunya virus [4] = assay: Antiviral activity against Chikungunya virus infected in African green monkey Vero cells assessed as inhibition of virus-induced cytopathic effect; format: functional, cell-based
Chikungunya virus [5] = assay: Antiviral activity against Chikungunya virus by cell-based assay; format: functional
[6] = Inhibition of Chikungunya virus IMPDH

## COC(=O)C[C@](O)(CCC(C)(C)O)C(=O)O[C@@H]1C(OC)=C[C@]23CCCN2CCc2cc4c(cc2[C@H]13)OCO4 [HARRINGTONINE]
Chikungunya virus [1]
  EC50: 0.24 µM

## O=c1cnn([C@@H]2O[C@H](CO)[C@@H](O)[C@H]2O)c(=O)[nH]1 [6-AZAURIDINE]
Chikungunya virus [2]
  EC50: 0.2 µg/mL

## C=C(C)[C@@]1(O)[C@@H]2OC3(c4ccccc4)O[C@H]1[C@@H](C)[C@]1(O3)C3=CC(=C(Cl)Cl)[C@H](OC(=O)c4ccccc4)[C@@]3(O)[C@H](OC(C)=O)[C@@]3(COC(C)=O)O[C@H]3[C@@H]21
Chikungunya virus [2]
  EC50: 1.5 µM

## C=C[C@H]1CN2CC[C@H]1C[C@H]2[C@H](O)c1ccnc2ccc(OC)cc12 [QUININE]
Chikungunya virus [2]
  IC50: 0.1 µg/mL (≈ 0.308 µM)

## CCOc1ccc(/C=N/NC(=O)/C=C/c2ccc(C(C)(C)C)cc2)cc1OCC
[3]
  selectivity ratio: 32
Chikungunya virus [4]
  EC50: 3.2 µM

## CCOC(=O)c1c(CSc2ccccc2)n(C)c2cc(Br)c(O)c(CN(C)C)c12 [UMIFENOVIR]
Chikungunya virus [5]
  IC50: 12.2 µM

## C=C(C)[C@@H]1CC[C@]2(C)CC[C@]3(C)[C@H](CC[C@@H]4[C@@]5(C)CCC(=O)C(C)(C)[C@@H]5CC[C@]43C)[C@@H]12 [LUPENONE]
Chikungunya virus [5]
  EC50: 77 µM

## CCOC(=O)c1c(CS(=O)(=O)c2ccccc2)n(C)c2cc(Br)c(O)c(CN(C)C)c12
Chikungunya virus [5]
  IC50: 56.4 µM

## CCN(CC)CCCC(C)Nc1ccnc2cc(Cl)ccc12 (stereo unspecified) [CHLOROQUINE]
Chikungunya virus [2]
  IC50: 1.1 µg/mL (≈ 3.44 µM)

## COc1c(C)c2c(c(O)c1C/C=C(\C)CCC(=O)O)C(=O)OC2 [MYCOPHENOLIC ACID]
[6]
  IC50: 0.2 µM

## CC1(C)CC[C@]2(C)CC[C@]3(C)C(=CC[C@@H]4[C@@]5(C)CCC(=O)C(C)(C)[C@@H]5CC[C@]43C)[C@@H]2C1
Chikungunya virus [5]
  EC50: 86 µM

## NC(=O)c1ncn([C@@H]2O[C@H](CO)[C@@H](O)[C@H]2O)n1 [RIBAVIRIN]
Chikungunya virus [2]
  EC50: 83.3 µg/mL

## CCOc1ccc(/C=N/NC(=O)C2CC2c2ccc(C(C)(C)C)cc2)cc1OCC (stereo unspecified)
[3]
  selectivity ratio: 14
Chikungunya virus [4]
  EC50: 5 µM

## CCOC(=O)c1c(C[S+]([O-])c2ccccc2)n(C)c2cc(Br)c(O)c(CN(C)C)c12 (stereo unspecified)
Chikungunya virus [5]
  IC50: 54.5 µM
